Usually melting point stands for the temperature, or range, at which the solid turns liquid.

For one data set, the system named is emesis in the dog. Nature of the data set: Emesis in the Dog (apomorphine-induced retching and vomiting). The class given is in vivo. The note with it: adult female dogs; test compound i.v. at 1.0 mg/kg; 5 min later subcutaneous apomorphine (0.1 mg/0.5 ml/kg); observed for 60 min. The method, then: Individually housed adult female dogs (8 to 15 kg) were given an i.v. injection of a solution containing a test compound. 5 Min later the emetic responses (retching and vomiting) were induced by administration of subcutaneous apomorphine (0.1 mg/0.5 ml/kg) and observed for the next 60 min. The timing and number of retches and vomits observed were recorded for each animal. An individual animal was tested with at least 10 days between experiments.

As to `CCC(=O)N1CCN2[C@H](CN(Cc3cc(-n4nnnc4C(F)(F)F)ccc3OC)C[C@H]2C(c2ccccc2)c2ccccc2)C1.Cl.Cl`, the melting point was 171 to 175 °C.
Consider `COc1ccc(-n2nnnc2C(F)(F)F)cc1CN1C[C@@H]2CN(C(=O)C(C)C)CCN2[C@H](C(c2ccccc2)c2ccccc2)C1.Cl.Cl`, for which the melting point lay in the range of 172 to 175 °C.
On to `CCCC(=O)N1CCN2[C@H](CN(Cc3cc(-n4nnnc4C(F)(F)F)ccc3OC)C[C@H]2C(c2ccccc2)c2ccccc2)C1.Cl.Cl`, for which the melting point was 162 to 166 °C.
As to `CCOC(=O)N1CCN2[C@H](CN(Cc3cc(-n4nnnc4C(F)(F)F)ccc3OC)C[C@H]2C(c2ccccc2)c2ccccc2)C1.Cl.Cl`, the melting point lay within 153 to 156 °C.
The same measure, in the same setting: the figure for `COc1ccc(-n2nnnc2C(F)(F)F)cc1CN1C[C@@H]2CN(C(=O)OC(C)C)CCN2[C@H](C(c2ccccc2)c2ccccc2)C1.Cl.Cl` is 147 to 150 °C; for `COc1ccc(-n2nnnc2C(F)(F)F)cc1CN1C[C@@H]2CN(C(=O)CC(C)C)CCN2[C@H](C(c2ccccc2)c2ccccc2)C1.Cl.Cl` it is 138 to 150 °C (dec.); for `CCS(=O)(=O)N1CCN2[C@H](CN(Cc3cc(-n4nnnc4C(F)(F)F)ccc3OC)C[C@H]2C(c2ccccc2)c2ccccc2)C1.Cl.Cl` it is 143 to 146 °C.
The compound `CCCS(=O)(=O)N1CCN2[C@H](CN(Cc3cc(-n4nnnc4C(F)(F)F)ccc3OC)C[C@H]2C(c2ccccc2)c2ccccc2)C1.Cl.Cl` gave a melting point of 146 to 165 °C.
Regarding `COc1ccc(-n2nnnc2C(F)(F)F)cc1CN1C[C@@H]2CN(S(=O)(=O)C(C)C)CCN2[C@H](C(c2ccccc2)c2ccccc2)C1.Cl.Cl`, the melting point is 150 to 155 °C.
Consider `COc1ccc(-c2ccsc2)cc1CN1C[C@@H]2CN(C(C)=O)CCN2[C@H](C(c2ccccc2)c2ccccc2)C1.Cl.Cl`, for which the melting point lay within 177 to 181 °C.
For the compound `COc1ccc(C(F)(F)F)cc1CN1C[C@@H]2CN(C(C)=O)CCN2[C@H](C(c2ccccc2)c2ccccc2)C1.Cl.Cl`, the melting point lay within 147 to 150 °C.
On to `COc1ccc(-c2ccncc2)cc1CN1C[C@@H]2CN(C(C)=O)CCN2[C@H](C(c2ccccc2)c2ccccc2)C1.Cl.Cl.Cl`, for which the melting point was in the range of 210 to 215 °C.
Turning to `CCOc1ccc(-n2nnnc2C(F)(F)F)cc1CN1C[C@@H]2CN(C(C)=O)CCN2[C@H](C(c2ccccc2)c2ccccc2)C1.Cl.Cl`, the melting point was in the range of 162 to 165 °C.
In turn, `COc1ccc(-c2ccoc2)cc1CN1C[C@@H]2CN(C(C)=O)CCN2[C@H](C(c2ccccc2)c2ccccc2)C1.Cl.Cl` displayed a melting point of 173 to 177 °C.
For the compound `COc1ccncc1CN1C[C@@H]2CN(C(C)=O)CCN2[C@H](C(c2ccccc2)c2ccccc2)C1.Cl.Cl.Cl`, the melting point fell in the range of 205 to 210 °C.
Same read-out and setting: the result for `CC(=O)N1CCN2[C@H](CN(Cc3cc(-n4nnnc4C(F)(F)F)ccc3OC(C)C)C[C@H]2C(c2ccccc2)c2ccccc2)C1.Cl.Cl` reads 167 to 171 °C; that for `COc1cc(OC)c(CN2C[C@@H]3CN(C(C)=O)CCN3[C@H](C(c3ccccc3)c3ccccc3)C2)c(OC)c1.Cl.Cl`, 170 to 173 °C.
With `COC(=O)N1CCN2[C@H](CN(Cc3cc(-n4nnnc4C(F)(F)F)ccc3OC)C[C@H]2C(c2ccccc2)c2ccccc2)C1.Cl.Cl` [Example 28, (6R,9aR)-6-benzhydryl-8-[2-methoxy-5-[5-(trifluoromethyl)-1H-tetrazol-1-yl]benzyl]octahydropyrazino[1,2-a]pyrazine-2-carboxylic acid methyl ester dihydrochloride], the “inhibition rate of emesis” value with emesis in the dog is 90%.

The values are drawn from US6787543B2, “Benzhydryl derivatives” (Fujisawa Pharmaceutical Co., Ltd., priority 2002, dated 2004).
